The NIST ThermoML archive (doi:10.1016/j.jct.2018.08.005)

Assay: molar heat capacity at constant pressure; xn = mol fraction of the nth substance listed
Settings: 100 kPa, Liquid, DSC

CCOC(F)(C(F)(F)C(F)(F)C(F)(F)F)C(F)(C(F)(F)F)C(F)(F)F (stereo not given) [2-trifluoromethyl-3-ethoxydodecafluorohexane] + CC(C)OC(C)C
molar heat capacity at constant pressure [J/K/mol]
Settings	x1 = 0.25	x1 = 0.375	x1 = 0.5	x1 = 0.625	x1 = 0.75	x1 = 1
290.5 K	277.26	310.54	342.56	375.58	407.39	–
295.44 K	279.61	312.95	345.14	378.55	410.41	–
297.91 K	–	–	–	–	–	466.29
300.38 K	281.77	315.36	347.98	381.52	413.77	–
305.32 K	284.47	317.99	350.3	384.2	416.46	–
307.79 K	–	–	–	–	–	472.92
310.26 K	287.71	320.4	353.14	387.17	419.82	–
315.2 K	290.42	322.81	355.98	390.14	422.85	–
317.66 K	–	–	–	–	–	479.54
320.13 K	293.12	325.66	358.82	393.11	425.87	–
325.07 K	295.64	328.29	361.66	396.08	428.9	–
327.54 K	–	–	–	–	–	486.58
330.01 K	298.16	330.92	364.5	399.35	432.26	–
334.95 K	300.69	333.77	367.08	402.32	434.61	–
337.42 K	–	–	–	–	–	494.03
339.89 K	303.21	336.4	369.66	405.29	437.97	–
347.29 K	–	–	–	–	–	500.66
357.17 K	–	–	–	–	–	508.53
367.05 K	–	–	–	–	–	517.23
376.92 K	–	–	–	–	–	523.85
386.8 K	–	–	–	–	–	531.72
